From paper PMC9366509 (Inorganic chemistry, 2022)
Like-named read-outs stand apart in the source and are kept apart here.

Assays:
[1] = Chelator protonation constants by pH potentiometry; type: physicochemical; settings: I = 0.1 M KCl, 25 °C
[2] = for pPb (pM), -log [Pb]free: [Pb]tot = 10^-6 M, [L]tot = 10^-5 M; for pPb (pM), -log [Pb]free / log K'Pb (conditional stability constant): pH 7.4, 25 °C, I = 0.1 M
EDTA challenge = type: physicochemical; settings: 20-fold excess EDTA, after 72 hours; 203Pb complex
[3] = Non-radioactive Pb2+ challenge; type: physicochemical; settings: 20-fold excess non-radioactive Pb, after 72 hours; 203Pb complex
[4] = pH 7.4
[5] = cited from earlier work
[6] = Pb2+ complex, cited from earlier work
[7] = Pb2+ complex, I = 0.1 M KCl, 25 °C

c1ccc(CN2CCOCCN(Cc3ccccn3)CCN(Cc3ccccn3)CCOCCN(Cc3ccccn3)CC2)nc1 [Crown-4Py, 4,7,13,16-tetrakis(pyridin-2-ylmethyl)-1,10-dioxa-4,7,13,16-tetraazacyclooctadecane]
log K1 (protonation constant) [1]: 7.91(4)
log K2 (protonation constant) [1]: 7.33(4)
log K3 (protonation constant) [1]: 4.64(1)
log K4 (protonation constant) [1]: 4.00(6)
log KPbH2L [2, 7]: 3.50(8)
log KPbHL [2, 7]: 5.22(1)
log KPbL (thermodynamic stability constant, log KML) [2, 7]: 13.29(5)
pPb (pM), -log [Pb]free [2]: 13.40
log K'Pb (conditional stability constant) [2]: 12.45

c1ccc(CN2CCN(Cc3ccccn3)CCN(Cc3ccccn3)CCN(Cc3ccccn3)CC2)nc1 [Cyclen-4Py, 1,4,7,10-tetrakis(pyridin-2-ylmethyl)-1,4,7,10-tetraazacyclododecane]
complex remained intact, EDTA challenge (EDTA challenge): 98.1 ± 0.5%
complex remained intact, non-radioactive Pb2+ challenge [3]: 98.0 ± 0.4%
log K1 (protonation constant) [1]: 10.05(4)
log K2 (protonation constant) [1]: 7.53(2)
log K3 (protonation constant) [1]: 3.54(7)
log K4 (protonation constant) [1]: 2.23(6)
log KPbHL [2, 7]: 2.06(9)
log KPbL (thermodynamic stability constant, log KML) [2, 7]: 19.95(3)
pPb (pM), -log [Pb]free [2]: 17.88
log K'Pb (conditional stability constant) [2]: 16.93

O=C(O)CN1CCN(CC(=O)O)CCN(CC(=O)O)CCN(CC(=O)O)CC1 [DOTA, 1,4,7,10-tetraazacyclododecane-1,4,7,10-tetraacetic acid]
log K'Pb (conditional stability constant) [4]: 15.64
log K1 (protonation constant) ([5]; I = 0.1 M Me4NNO3): 12.09
log K2 (protonation constant) ([5]; I = 0.1 M Me4NNO3): 9.76
log K3 (protonation constant) ([5]; I = 0.1 M Me4NNO3): 4.559
log K4 (protonation constant) ([5]; I = 0.1 M Me4NNO3): 4.09
log KPbL (thermodynamic stability constant, log KML) ([6]; I = 0.1 M NaCl): 25.3(1)[39]

NC(=O)CN1CCN(CC(N)=O)CCN(CC(N)=O)CCN(CC(N)=O)CC1 [DOTAM, 1,4,7,10-tetrakis(carbamoylmethyl)-1,4,7,10-tetraazacyclododecane]
log K1 (protonation constant) ([5]; I = 0.1 M NaNO3): 7.70(1)
log K2 (protonation constant) ([5]; I = 0.1 M NaNO3): 6.21(1)
log KPbL (thermodynamic stability constant, log KML) ([6]; I = 0.1 M NaNO3): >19

c1ccc(CN2CCOCCOCCN(Cc3ccccn3)CCOCCOCC2)nc1 [NOON-2Py, 7,16-bis(pyridin-2-ylmethyl)-1,4,10,13-tetraoxa-7,16-diazacyclooctadecane]
log K1 (protonation constant) ([5]; I = 0.1 M KCl): 7.44
log K2 (protonation constant) ([5]; I = 0.1 M KCl): 6.26
log K3 (protonation constant) ([5]; I = 0.1 M KCl): 1.38
log KPbL (thermodynamic stability constant, log KML) ([6]; I = 0.1 M KCl): 11.67
pPb (pM), -log [Pb]free [2]: 12.29
log K'Pb (conditional stability constant) [2]: 11.33
